Measurements reported in patent US20060258599A1, “Methods and composition for the treatment of cystic fibrosis and related illnesses” (priority 2005, published 2006).
Read-outs that look alike come from different tables or passages of the source.

Tests used:
[1] = system: individual who is a carrier of the CF gene; assay: Fatty acid profile blood tests before and after 10-day oral isothiocyanate (individual study); assay type: in vivo, human
Experimental: Example 1. Individual study based on 10 mg consumption of BITC. An isothiocyanate of 10 mg was taken orally per day for 10 days by an individual who is a carrier of the CF gene. Blood tests were performed before and after the 10-day study to determine the fatty acid levels before and after administration of the isothiocyanate.

[2] = system: glutathione S-transferase; settings: cited from earlier work; for glutathione S-transferase activity: HT29 cells
[3] = +10 days vs baseline, 10 mg orally per day

SMILES: S=C=NCc1ccccc1 [BITC, benzyl isothiocyanate]
- Arachidic Acid, % Change [1, 3]: −8.93%
- Arachidonic Acid, % Change [1, 3]: −3.31%
- DHA C22:6W3, % Change [1, 3]: 36.29%
- DPA C22 6W3, % Change [1, 3]: −5.19%
- DPA C22:6W6, % Change [1, 3]: −8.7%
- DTA C22 4W6T, % Change [1, 3]: 6.45%
- Docosanoic Acid C22:0, % Change [1, 3]: 22.59%
- Docosanoic Acid C22:1, % Change [1, 3]: 0%
- EPA, % Change [1, 3]: 18.57%
- Hexacosanoic Acid C24:0, % Change [1, 3]: 33.33%
- Hexacosanoic Acid C28:1, % Change [1, 3]: 29.17%
- Mead Acid, % Change [1, 3]: 0%
- Nervonic Acid, % Change [1, 3]: −2.47%
- Phytanic Acid, % Change [1, 3]: 18.8%
- Priatanic Acid, % Change [1, 3]: 11.11%
- Tetracosanoic Acid, % Change [1, 3]: 24.6%
- Tiete Tebrana Ratio, % Change [1, 3]: 0%
- Total Fatty Acids, % Change [1, 3]: 1.87%
- Total Monounsaturated, % Change [1, 3]: 12%
- Total Polyunsaturated, % Change [1, 3]: 4.35%
- Total Saturated, % Change [1, 3]: 0%
- Total w3, % Change [1, 3]: 20%
- Total w61, % Change [1, 3]: 2.44%
- h-g-Linoleic Acid, % Change [1, 3]: −9.88%
- Tiete Tebrana Ratio, +10 days ([1]; blood test after 10 mg orally per day for 10 days, baseline 0.031): 0.031
- Priatanic Acid, +10 days ([1]; blood test after 10 mg orally per day for 10 days, baseline 0.09): 0.1
- Hexacosanoic Acid C24:0, +10 days ([1]; blood test after 10 mg orally per day for 10 days, baseline 0.3): 0.4
- Hexacosanoic Acid C28:1, +10 days ([1]; blood test after 10 mg orally per day for 10 days, baseline 0.48): 0.62
- Total w3, +10 days ([1]; blood test after 10 mg orally per day for 10 days, baseline 0.5): 0.6
- Phytanic Acid, +10 days ([1]; blood test after 10 mg orally per day for 10 days, baseline 1.33): 1.58
- Total Monounsaturated, +10 days ([1]; blood test after 10 mg orally per day for 10 days, baseline 2.5): 2.8
- Docosanoic Acid C22:1, +10 days ([1]; blood test after 10 mg orally per day for 10 days, baseline 3): 3
- Total Saturated, +10 days ([1]; blood test after 10 mg orally per day for 10 days, baseline 3.5): 3.5
- Total w61, +10 days ([1]; blood test after 10 mg orally per day for 10 days, baseline 4.1): 4.2
- Total Polyunsaturated, +10 days ([1]; blood test after 10 mg orally per day for 10 days, baseline 4.6): 4.8
- Total Fatty Acids, +10 days ([1]; blood test after 10 mg orally per day for 10 days, baseline 10.7): 10.9
- DPA C22:6W6, +10 days ([1]; blood test after 10 mg orally per day for 10 days, baseline 23): 21
- Mead Acid, +10 days ([1]; blood test after 10 mg orally per day for 10 days, baseline 25): 25
- DTA C22 4W6T, +10 days ([1]; blood test after 10 mg orally per day for 10 days, baseline 31): 33
- Tetracosanoic Acid, +10 days ([1]; blood test after 10 mg orally per day for 10 days, baseline 44.3): 55.2
- Arachidic Acid, +10 days ([1]; blood test after 10 mg orally per day for 10 days, baseline 56): 51
- Docosanoic Acid C22:0, +10 days ([1]; blood test after 10 mg orally per day for 10 days, baseline 60.2): 73.8
- EPA, +10 days ([1]; blood test after 10 mg orally per day for 10 days, baseline 70): 83
- DPA C22 6W3, +10 days ([1]; blood test after 10 mg orally per day for 10 days, baseline 77): 73
- Nervonic Acid, +10 days ([1]; blood test after 10 mg orally per day for 10 days, baseline 81): 79
- h-g-Linoleic Acid, +10 days ([1]; blood test after 10 mg orally per day for 10 days, baseline 243): 219
- DHA C22:6W3, +10 days ([1]; blood test after 10 mg orally per day for 10 days, baseline 248): 338
- Arachidonic Acid, +10 days ([1]; blood test after 10 mg orally per day for 10 days, baseline 847): 819
- effect on glutathione S-transferase activity (in words) ([2]; HT29 cells cultures exposed to BITC): statistically significant increase
- glutathione S-transferase activity ([2]; 5 μmol/L of BITC): ~0.51 μmol min^−1 mg proteins^−1
- glutathione S-transferase activity ([2]; 25 μmol/L of BITC): ~0.74 μmol min^−1 mg protein^−1
